Reference: patent publication US20210267872A1, “Delivery Of Cosmetic Agents, Compositions And Use Thereof” (ELC Management LLC, priority 2020, published 2021)

How the values were obtained:
MatTek 300 skin = test: Skin penetration study (Franz Cell) using MatTek skin; format: in vitro ADME; conditions: for enhancement of penetration of AA2G over control: p value greater than 0.05
Experimental: In a 6-well plate, MatTek 300 skin (a skin modeling constructed by live cells, obtained from MatTek) was placed in well with 2.00 mL of incubation medium (also provide by MatTek). To the top of the skin, 400 ul of the sample was loaded. The skin was then incubated at 37° C. At 3 hours and 6 hours, the incubation medium was collected, and another 2.00 mL of medium was added into the well. The skin was then incubated until 24 hours. Finally, the medium was collected at 24 hours' time point. The collected mediums were filtered through a 0.45 um PTFE syringe filter into HPLC vials. The samples were then submitted to the UPLC study.
Waters ACQUITY H UPLC was used to analyze the collected samples from the penetration study (Franz Cell study).

Skin PAMPA study = format: in vitro ADME
Experimental: In vitro delivery of active ingredients in a formulation was evaluated using a skin PAMPA study. Active ingredients and pulverized thin fibers were added to the formulation and tested for permeation using PAMPA SC membrane for polar compounds. The following samples were prepared. Formulations are provided in Table 3 in percentages. • Formula 1 as shown in Table 3. • Formula 2: Formula 1 and 1% of microcrystalline cellulose (9 μm). • Formula 3: Formula 1 and the maximum amount of 1% dispersion (cellulose acetate fibers in water). • Formula 4: Formula 1 and 1% of microcrystalline cellulose (9 μm) and the maximum amount of 1% dispersion (cellulose acetate fibers in water).

enhancement of penetration of AA2G over control (MatTek 300 skin; six hours, formula containing cellulose acetate chopped fibers vs control without fiber) [%]	enhancement of penetration of AA2G over control (MatTek 300 skin; three hours, formula containing cellulose acetate chopped fibers vs control without fiber) [%]	enhancement of penetration of AA2G over control (difference) (MatTek 300 skin; twenty-four hours, formula containing cellulose acetate chopped fibers vs control without fiber)	delivery/penetration of AA2G into the skin in the presence of cellulose acetate chopped fibers (MatTek 300 skin; vs formulation without fiber, initial 6 hours after loading)	permeated amount of AA2G, FIG. 2B (Skin PAMPA study; span over all formulas shown) [μg/cm2]	SMILES	percentage % penetration of caffeine compared with AA2G (MatTek 300 skin)	penetration of caffeine in the presence of cellulose acetate chopped fibers (summary) (MatTek 300 skin; PAMPA)	enhancement of penetration of caffeine by addition of chopped fiber (MatTek 300 skin; human, 6 h) [%]	permeation of caffeine in the presence of chopped fibers compared to the control, FIG. 4B (Skin PAMPA study; composition comprising chopped fibers)	permeating amount of caffeine, FIG. 4A (Skin PAMPA study; six hours, cellulose acetate nanofiber)
30	33	less than 10%	enhanced	0 to 300	O=C1O[C@H]([C@@H](O)CO)C(O)=C1O[C@H]1O[C@H](CO)[C@@H](O)[C@H](O)[C@H]1O [AA2G, ascorbic acid 2-glucoside]	–	–	–	–	–
–	–	–	–	–	Cn1c(=O)c2c(ncn2C)n(C)c1=O [caffeine]	greater than that of AA2G	slightly enhanced	< 10	doubling	slightly increased
